In the NIST ThermoML archive (doi:10.1021/je300974g):

What was measured:
[1] = 101.33 kPa, Liquid, Vibrating tube method
[2] = xn = mol fraction of the nth substance listed; conditions: 101 kPa, Liquid, Vibrating tube method

CCNC=O [N-ethylformamide]
[1]
Conditions	mass density [kg/m3]
293.15 K	951.59
298.15 K	947.48
303.15 K	943.29
308.15 K	939.04
313.15 K	934.78

CCNC=O [N-ethylformamide] + CCCOC(C)=O
mass density [kg/m3], [2]
Conditions	x1 = 0.1294	x1 = 0.2456	x1 = 0.3565	x1 = 0.4694	x1 = 0.5596	x1 = 0.6587	x1 = 0.7478	x1 = 0.8363	x1 = 0.9182
293.15 K	892.25	899.54	906.52	913.89	919.91	926.72	933	939.47	945.56
298.15 K	887.29	894.73	901.8	909.26	915.35	922.25	928.63	935.19	941.36
303.15 K	882.35	889.93	897.09	904.67	910.86	917.78	924.29	930.93	937.11
308.15 K	877.39	885.05	892.4	900.06	906.31	913.38	919.92	926.57	932.85
313.15 K	872.28	880.14	887.6	895.34	901.71	908.84	915.46	922.22	928.54

CCCC(C)=O [pentan-2-one]
[1]
Conditions	mass density [kg/m3]
293.15 K	807.47
298.15 K	802.46
303.15 K	797.53
308.15 K	792.52
313.15 K	787.44

CCCOC(C)=O [propyl ethanoate]
[1]
Conditions	mass density [kg/m3]
293.15 K	887.97
298.15 K	882.21
303.15 K	876.54
308.15 K	870.81
313.15 K	864.95

C1CCOCC1 [tetrahydropyran]
[1]
Conditions	mass density [kg/m3]
293.15 K	884.08
298.15 K	878.95
303.15 K	873.79
308.15 K	868.67
313.15 K	863.43
